Experiments:
[1] = target: T1, LHCBM1 (Chlamydomonas reinhardtii, UniProt Q93VE0); assay: in vitro reconstitution, Ni-affinity and sucrose gradient, HPLC of bound pigments; assay type: binding; settings: C. reinhardtii pigment mix, measured only as Neo+loro sum
T1 construct: gene LhcII-4

[2] = target: T2, LHCBM9 (Chlamydomonas reinhardtii, UniProt Q8S3T9); assay: as above; assay type: binding; settings: C. reinhardtii pigment mix; measured only as Neo+loro sum
[3] = target: T2, LHCBM9; assay: as above; assay type: binding; settings: C. reinhardtii pigment mix, Chl a/b 2.5; stoichiometry, not an affinity
Source text: in vitro reconstitution, Ni-affinity and sucrose gradient, HPLC of bound pigments on LHCBM9

[4] = target: T1, LHCBM1; assay: as above; assay type: binding; settings: C. reinhardtii pigment mix, Chl a/b 2.5, stoichiometry, not an affinity
Source text: in vitro reconstitution, Ni-affinity and sucrose gradient, HPLC of bound pigments on LHCBM1

[5] = target: T3, LHCBM5 (Chlamydomonas reinhardtii, UniProt Q9ZSJ4); assay: as above; assay type: binding; settings: C. reinhardtii pigment mix, Chl a/b 2.5; stoichiometry, not an affinity
T3 construct: gene Lhcb3
T3 sequence (Q9ZSJ4 entry or part of it): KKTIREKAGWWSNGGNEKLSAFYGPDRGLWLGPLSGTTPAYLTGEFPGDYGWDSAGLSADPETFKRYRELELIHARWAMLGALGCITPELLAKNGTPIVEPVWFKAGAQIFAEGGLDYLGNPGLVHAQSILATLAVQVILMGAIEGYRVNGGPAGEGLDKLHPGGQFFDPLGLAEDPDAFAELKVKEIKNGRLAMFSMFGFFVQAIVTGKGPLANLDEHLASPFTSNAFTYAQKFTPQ
Source text: in vitro reconstitution, Ni-affinity and sucrose gradient, HPLC of bound pigments on LHCBM5

[6] = target: T4, LHCBM2 (Chlamydomonas reinhardtii, UniProt Q93WE0); assay: as above; assay type: binding; settings: C. reinhardtii pigment mix, Chl a/b 2.5; stoichiometry, not an affinity
T4 construct: gene LhcII-3
T4 sequence (Q93WE0 entry or part of it): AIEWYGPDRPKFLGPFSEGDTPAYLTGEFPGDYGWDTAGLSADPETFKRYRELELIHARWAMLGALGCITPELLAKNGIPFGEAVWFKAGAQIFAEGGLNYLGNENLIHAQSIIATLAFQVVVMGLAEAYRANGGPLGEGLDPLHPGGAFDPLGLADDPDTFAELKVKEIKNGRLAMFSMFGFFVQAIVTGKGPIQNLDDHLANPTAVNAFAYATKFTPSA
Source text: in vitro reconstitution, Ni-affinity and sucrose gradient, HPLC of bound pigments on LHCBM2

[7] = target: T5, LHCBM6 (Chlamydomonas reinhardtii, UniProt A8J287); assay: as above; assay type: binding; settings: C. reinhardtii pigment mix, Chl a/b 2.5; stoichiometry, not an affinity
T5 construct: gene CHLRE_06g285250v5
T5 sequence (A8J287 entry or part of it): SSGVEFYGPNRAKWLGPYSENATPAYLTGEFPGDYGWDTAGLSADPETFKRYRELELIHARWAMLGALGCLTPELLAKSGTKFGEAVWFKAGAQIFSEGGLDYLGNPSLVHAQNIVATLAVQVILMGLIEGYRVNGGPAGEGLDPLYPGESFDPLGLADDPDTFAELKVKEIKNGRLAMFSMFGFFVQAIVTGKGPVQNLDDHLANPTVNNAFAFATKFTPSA
Source text: in vitro reconstitution, Ni-affinity and sucrose gradient, HPLC of bound pigments on LHCBM6

[8] = target: LHCBM2/7 (type III major light-harvesting complex protein of Chlamydomonas reinhardtii) (Chlamydomonas reinhardtii); assay: sucrose density gradient ultracentrifugation + non-denaturing isoelectrofocusing (composition by SDS-PAGE); thylakoids solubilised with alpha-DM; trimeric band (B3) of the sucrose gradient separated by flat-bed ndIEF (ampholites pH 3.5-5, 0.06% beta-DM, 4 °C, 15 h); fractions run again as single bands on sucrose gradients (0.06% beta-DM, 20 mM Hepes pH 7.5); proteins identified by Tricine SDS-PAGE

T2 sequence (Q8S3T9 entry or part of it): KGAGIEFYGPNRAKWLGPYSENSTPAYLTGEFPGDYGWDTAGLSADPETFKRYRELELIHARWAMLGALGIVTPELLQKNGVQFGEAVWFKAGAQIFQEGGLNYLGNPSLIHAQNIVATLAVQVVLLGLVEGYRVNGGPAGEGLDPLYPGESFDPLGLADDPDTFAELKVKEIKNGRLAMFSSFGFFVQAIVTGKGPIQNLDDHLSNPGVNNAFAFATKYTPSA
T1 sequence (Q93VE0 entry or part of it): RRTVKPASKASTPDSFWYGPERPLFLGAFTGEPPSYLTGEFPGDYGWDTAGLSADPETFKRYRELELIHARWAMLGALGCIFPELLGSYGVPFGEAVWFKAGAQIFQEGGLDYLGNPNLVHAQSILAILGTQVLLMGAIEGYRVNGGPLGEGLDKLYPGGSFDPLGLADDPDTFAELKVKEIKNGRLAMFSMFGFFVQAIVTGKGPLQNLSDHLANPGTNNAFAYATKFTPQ

CC1=C[C@H](O)CC(C)(C)[C@H]1/C=C/C(C)=C/C=C/C(C)=C/C=C/C=C(C)/C=C/C=C(/C=C/C1=C(C)C[C@@H](O)CC1(C)C)CO [loroxanthin] was tested, and the “in vitro reconstitution, Ni-affinity and sucrose gradient, HPLC of bound pigment” value (“in vitro reconstitution … of bound pigment” below) ([1]; internal carotenoid site (L1 proposed)) was “All LHCBMs contain lutein, loroxanthin and neoxanthin and a small amount of violaxanthin” and the “in vitro reconstitution … of bound pigment” value [2] was “All LHCBMs contain lutein, loroxanthin and neoxanthin and a small amount of violaxanthin”.

With CC1=C[C@H](O)CC(C)(C)[C@H]1/C=C/C(C)=C/C=C/C(C)=C/C=C/C=C(C)/C=C/C=C(C)/C=C/C1=C(C)C[C@@H](O)CC1(C)C [lutein] the Lut/mon [3] was 1.19±0.06 mol per monomer (normalised to 14 Chls), the Lut/mon [4] was 1.32±0.01 mol per monomer (normalised to 14 Chls) and the Lut/mon [5] was 1.38±0.01 mol per monomer (normalised to 14 Chls). The Lut/mon [6] was 1.43±0.04 mol per monomer (normalised to 14 Chls) and the Lut/mon [7] was 1.25±0.01 mol per monomer (normalised to 14 Chls).

In the case of CC(=C/C=C/C(C)=C/C=C/C=C(C)/C=C/C=C(\C)C=C=C1C(C)(C)C[C@H](O)C[C@@]1(C)O)/C=C/[C@@]12O[C@]1(C)C[C@@H](O)CC2(C)C [neoxanthin], the “in vitro reconstitution … of bound pigment” value ([1]; N1 site suggested) is reported as “All LHCBMs contain lutein, loroxanthin and neoxanthin and a small amount of violaxanthin”.

For CC(/C=C/C=C(C)/C=C/[C@@]12O[C@]1(C)C[C@@H](O)CC2(C)C)=C\C=C\C=C(C)\C=C\C=C(C)\C=C\[C@@]12O[C@]1(C)C[C@@H](O)CC2(C)C [violaxanthin], the Vio/mon [3] was 0.24±0.01 mol per monomer (normalised to 14 Chls) and the Vio/mon ([4]; V1 site suggested) was 0.11±0.01 mol per monomer (normalised to 14 Chls).

For “LHCBM2/7 (type III major light-harvesting complex protein of Chlamydomonas reinhardtii) (natural protein)”, the stoichiometry N [8] was 3.
